The values that follow come from PubChem BioAssay (NCI).

Among the test systems are HCC-2998 colon; HL-60(TB) leukemia; MALME-3M melanoma; NCI-H23 lung; NCI-H522 lung; NCI/ADR-RES ovarian; OVCAR-3 ovarian; SK-MEL-28 melanoma; SR leukemia; TK-10 renal.
Holding throughout (assay): NCI tumour cell line growth inhibition, 48 h

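Interpolation was linear, between the two tested concentrations surrounding the appropriate level; five concentrations were tested over 48 hours in 96-well plates. The concentration for 50% growth inhibition is given as GI50. TGI: concentration producing complete growth inhibition.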 Bounds are passed on as bounds.

Consider `COC(=O)c1cc2c(cc1Cl)SC1=NN(C)C(N(C)C)N1S2(=O)=O` (stereo not drawn), for which the GI50 with HCC-2998 colon, with HL-60(TB) leukemia, in the test on MALME-3M melanoma, with NCI-H23 lung, in the test with NCI-H522 lung and in the test on NCI/ADR-RES ovarian was > 100 µM throughout. Further, the GI50 in the test on OVCAR-3 ovarian, with SK-MEL-28 melanoma, in the test with SR leukemia and in the test with TK-10 renal was > 100 µM each time. For the same compound, the TGI in the test with HCC-2998 colon, in the test on HL-60(TB) leukemia, with MALME-3M melanoma, in the test on NCI-H23 lung, with NCI-H522 lung and in the test with NCI/ADR-RES ovarian was > 100 µM each time. The TGI with OVCAR-3 ovarian, in the test on SK-MEL-28 melanoma, with SR leukemia and in the test with TK-10 renal was > 100 µM in each case.

As to `Cc1cc[n+]2c(c1)-c1cc(C)cc[n+]1CC2`, the TGI in the test with HCC-2998 colon is > 100 µM; in the test with HL-60(TB) leukemia, > 100 µM; in the test with MALME-3M melanoma, > 100 µM; with NCI-H23 lung it was > 100 µM; in the test with NCI-H522 lung it was > 92.9 µM; in the test on NCI/ADR-RES ovarian it was > 100 µM. Besides, the TGI in the test with OVCAR-3 ovarian, in the test on SK-MEL-28 melanoma, with SR leukemia and in the test on TK-10 renal was > 100 µM throughout.

Turning to `CSc1nc2sc3c(c2c(=O)n1-c1ccc(C(C)C)cc1)CCC(=O)C3`, the GI50 in the test on HCC-2998 colon was 2.47 µM; in the test on HL-60(TB) leukemia it was 2.72 µM; with MALME-3M melanoma, 3.11 µM; in the test with NCI-H23 lung, 2.2 µM; in the test with NCI-H522 lung, 1.96 µM; in the test with NCI/ADR-RES ovarian it was 2.36 µM. For the same compound, the GI50 with OVCAR-3 ovarian was 1.94 µM; in the test with SK-MEL-28 melanoma, 2.45 µM; in the test on SR leukemia it was 2.14 µM; in the test with TK-10 renal, 2.58 µM. Besides, the TGI in the test with HCC-2998 colon turned out to be 5.02 µM; in the test on HL-60(TB) leukemia it was 7.57 µM; with MALME-3M melanoma it was 8.25 µM; with NCI-H23 lung, 4.53 µM; with NCI-H522 lung, 3.72 µM; with NCI/ADR-RES ovarian it was 5.13 µM. Moreover, the TGI with OVCAR-3 ovarian is 3.53 µM; in the test on SK-MEL-28 melanoma, 4.62 µM; in the test with SR leukemia, 6.02 µM; in the test on TK-10 renal, 6.53 µM.

As to `NS(=O)(=O)c1ccc(-c2cc3ccncc3cc2OCc2ccccc2)cc1`, the GI50 was > 25 µM with HCC-2998 colon; 6.43 µM in the test with HL-60(TB) leukemia; 22.8 µM in the test on MALME-3M melanoma; > 25 µM in the test on NCI-H23 lung; > 17 µM in the test with NCI-H522 lung; 25 µM in the test on NCI/ADR-RES ovarian. Further, the GI50 was 12.1 µM with OVCAR-3 ovarian, 20.6 µM in the test on SK-MEL-28 melanoma, 6.58 µM with SR leukemia and > 23.1 µM in the test on TK-10 renal. Moreover, the TGI is > 25 µM with HCC-2998 colon; > 19.3 µM with HL-60(TB) leukemia; > 25 µM in the test on MALME-3M melanoma; > 25 µM with NCI-H23 lung; > 25 µM with NCI-H522 lung; > 25 µM in the test on NCI/ADR-RES ovarian. Also, the TGI is > 25 µM with OVCAR-3 ovarian, > 25 µM in the test on SK-MEL-28 melanoma, > 23.4 µM in the test on SR leukemia and > 25 µM in the test with TK-10 renal.

For the compound `Oc1cccc2ccc(N/N=C/c3cc(CN4CCOCC4)c(O)c4ncccc34)nc12`, the GI50 is 0.0368 µM with HCC-2998 colon; 0.0298 µM in the test with HL-60(TB) leukemia; 0.032 µM in the test on MALME-3M melanoma; 0.0327 µM in the test with NCI-H23 lung; < 0.0165 µM with NCI-H522 lung; 0.0233 µM in the test with NCI/ADR-RES ovarian. In addition, the GI50 in the test with OVCAR-3 ovarian is 0.0392 µM; in the test on SK-MEL-28 melanoma it was 0.0634 µM; in the test on SR leukemia it was 0.0332 µM; in the test with TK-10 renal, 0.0497 µM. For the same compound, the TGI is 1.93 µM in the test with HCC-2998 colon; 1.49 µM in the test with HL-60(TB) leukemia; 1.89 µM in the test on MALME-3M melanoma; 1.73 µM in the test on NCI-H23 lung; 1.48 µM with NCI-H522 lung; 1.63 µM with NCI/ADR-RES ovarian. Besides, the TGI with OVCAR-3 ovarian was found to be 2.09 µM; in the test on SK-MEL-28 melanoma, 6.19 µM; with SR leukemia it was 4.38 µM; in the test with TK-10 renal, 13.5 µM.

`C=CCN1CC(=O)N2[C@@H](Cc3ccc(O)cc3F)C(=O)N(Cc3cccc(N4CC(N5CCN(CC)CC5)C4)n3)C[C@@H]2N1C(=O)NCc1ccccc1`: the GI50 with HCC-2998 colon is 0.0687 µM; in the test with HL-60(TB) leukemia, 0.226 µM; with MALME-3M melanoma, 0.0292 µM; in the test with NCI-H23 lung, 0.0756 µM; with NCI-H522 lung, 0.0284 µM; in the test with NCI/ADR-RES ovarian, 2.19 µM. For the same compound, the GI50 in the test on OVCAR-3 ovarian was 0.0328 µM; in the test with SK-MEL-28 melanoma, 0.0405 µM; with SR leukemia, 0.0292 µM; in the test with TK-10 renal, 0.16 µM. Further, the TGI was > 100 µM in the test with HCC-2998 colon; 26.5 µM in the test on HL-60(TB) leukemia; 0.211 µM with MALME-3M melanoma; > 100 µM with NCI-H23 lung; 32.8 µM with NCI/ADR-RES ovarian; > 100 µM in the test on OVCAR-3 ovarian. Moreover, the TGI in the test on SK-MEL-28 melanoma was > 100 µM; in the test on SR leukemia, 1.7 µM; in the test on TK-10 renal, > 100 µM.

Turning to `Cn1cc(C2=C(c3cccc(OC[C@@H](O)CO)c3)C(=O)NC2=O)c2ccccc21`, the GI50 with HCC-2998 colon was > 25 µM; in the test with HL-60(TB) leukemia, > 25 µM; with MALME-3M melanoma, > 25 µM; in the test on NCI-H23 lung it was > 25 µM; in the test on NCI-H522 lung, 24.8 µM; in the test on NCI/ADR-RES ovarian it was > 25 µM. The GI50 was 11.2 µM in the test with OVCAR-3 ovarian, > 25 µM in the test on SK-MEL-28 melanoma, > 11.2 µM in the test on SR leukemia and > 25 µM in the test on TK-10 renal. Further, the TGI in the test with HCC-2998 colon, in the test with HL-60(TB) leukemia, with MALME-3M melanoma, in the test on NCI-H23 lung, in the test on NCI-H522 lung and in the test with NCI/ADR-RES ovarian was > 25 µM throughout. For the same compound, the TGI in the test on OVCAR-3 ovarian, in the test with SK-MEL-28 melanoma, in the test on SR leukemia and in the test on TK-10 renal was > 25 µM in each case.

For the compound `C#CCNC(=O)[C@H](CC)[C@H]1CC[C@H](C)[C@H]([C@@H](C)[C@H](O)[C@H](C)C(=O)[C@H](CC)C2O[C@]3(C=CC(=O)[C@]4(CC[C@@](C)([C@H]5CC[C@](O)(CC)[C@H](C)O5)O4)O3)[C@H](C)C[C@@H]2C)O1` (stereo partly drawn), the GI50 in the test on HCC-2998 colon is 2.35 µM; in the test on HL-60(TB) leukemia, 2.28 µM; with MALME-3M melanoma it was 2.05 µM; with NCI-H23 lung, 2.83 µM; in the test with NCI-H522 lung, 1.87 µM; with NCI/ADR-RES ovarian it was 2.26 µM. Also, the GI50 in the test on OVCAR-3 ovarian was 1.86 µM; in the test on SK-MEL-28 melanoma, 1.87 µM; in the test on SR leukemia, 1.61 µM; with TK-10 renal, 2.35 µM. Also, the TGI in the test on HCC-2998 colon is 5.89 µM; in the test on HL-60(TB) leukemia it was 5.45 µM; in the test with MALME-3M melanoma, 6.15 µM; in the test on NCI-H23 lung it was > 100 µM; in the test with NCI-H522 lung it was 5.39 µM; with NCI/ADR-RES ovarian it was 7.72 µM. Further, the TGI stood at 3.98 µM with OVCAR-3 ovarian, 3.96 µM with SK-MEL-28 melanoma, 5.37 µM with SR leukemia and 7.74 µM in the test on TK-10 renal.

Turning to `O=C(O)c1cccc(C(=O)O)c1S(=O)Cc1ccccc1` (stereo not drawn), the TGI in the test on HCC-2998 colon, in the test on HL-60(TB) leukemia, with MALME-3M melanoma, with NCI-H23 lung, with NCI-H522 lung and in the test with NCI/ADR-RES ovarian was > 100 µM each time. In addition, the TGI in the test with OVCAR-3 ovarian, with SK-MEL-28 melanoma, in the test on SR leukemia and with TK-10 renal was > 100 µM each time.

With `COc1ccc(/C=C(\C#N)n2nnc3c(F)cccc32)cc1`, the GI50 was 1.16 µM with HCC-2998 colon; 0.229 µM with HL-60(TB) leukemia; 0.517 µM in the test with MALME-3M melanoma; 0.508 µM in the test on NCI-H23 lung; 0.182 µM with NCI-H522 lung; 0.181 µM in the test with NCI/ADR-RES ovarian. Also, the GI50 in the test with OVCAR-3 ovarian is 0.283 µM; with SK-MEL-28 melanoma, 1.28 µM; in the test on SR leukemia it was 0.161 µM; with TK-10 renal it was 2.73 µM. The TGI is > 47 µM in the test on HCC-2998 colon; 0.82 µM with HL-60(TB) leukemia; > 100 µM with MALME-3M melanoma; 12.5 µM in the test with NCI-H23 lung; 4.52 µM in the test with NCI/ADR-RES ovarian; 2.53 µM with OVCAR-3 ovarian. Moreover, the figures for the TGI with SK-MEL-28 melanoma, in the test with SR leukemia and in the test on TK-10 renal were > 100 µM, > 100 µM and 29 µM, respectively.

For `C[C@]12CC[C@@H]3c4cc(OC(F)F)c(OS(N)(=O)=O)cc4CC[C@H]3[C@@H]1CC[C@@H]2O`, the GI50 was 1.04 µM in the test with HCC-2998 colon; 0.338 µM in the test with HL-60(TB) leukemia; 0.485 µM in the test with MALME-3M melanoma; 0.621 µM with NCI-H23 lung; 0.274 µM in the test with NCI-H522 lung; 0.601 µM in the test on NCI/ADR-RES ovarian. Besides, the GI50 in the test on OVCAR-3 ovarian was 0.39 µM; in the test on SK-MEL-28 melanoma, 1.43 µM; in the test with SR leukemia it was 0.303 µM; in the test with TK-10 renal, 17 µM. The TGI in the test with HCC-2998 colon is 14 µM; in the test on HL-60(TB) leukemia, 2.49 µM; in the test on MALME-3M melanoma, 21.6 µM; in the test with NCI-H23 lung, 20.1 µM; with NCI-H522 lung, 14.8 µM; with NCI/ADR-RES ovarian, 16.7 µM. The TGI in the test with OVCAR-3 ovarian is 11.1 µM; in the test on SK-MEL-28 melanoma, 24.6 µM; in the test with SR leukemia, > 100 µM; in the test on TK-10 renal it was > 77.2 µM.

Take `OCCNC1c2cc(Cl)ccc2-c2c(Cl)cc(Cl)cc21` (stereo not drawn): the TGI in the test with HCC-2998 colon was > 100 µM; in the test on HL-60(TB) leukemia it was 51.4 µM; in the test with MALME-3M melanoma, > 100 µM; in the test on NCI-H23 lung, > 100 µM; in the test with NCI-H522 lung it was > 100 µM; in the test on NCI/ADR-RES ovarian it was > 100 µM. Moreover, the TGI in the test with OVCAR-3 ovarian is 80 µM; with SK-MEL-28 melanoma it was > 100 µM; with SR leukemia, 44.9 µM; with TK-10 renal, > 100 µM.
